The values below come from US8722895B2, “Prolyl hydroxylase inhibitors and method of use” (Akebia Therapeutics Inc., priority 2006, dated 2014).

The subject of one test is EPO. Nature of the test: Mouse Serum EPO Assay (mouse ischemic hindlimb study). It is filed as in vivo. Conditions: for EPO response: in vivo response, mouse serum EPO. On the procedure: (§1) Mouse Ischemic Hindlimb Study
(§2) All animal work is conducted in accordance with the Guide for the Care and Use of Laboratory Animals (National Academy of Sciences; Copyright® 1996) and the Institutional Animal Care and Use Committee guidelines at Procter and Gamble Pharmaceuticals. We studied 9-10 week old male C57B1/6 mice from Charles River Laboratory (Portage, Mich.). The mice are orally dosed with vehicle (aqueous carbonate buffer, 50 mM; pH 9.0) or compound 1 in vehicle at 50 mg/kg or 100 mg/kg. The animals are dosed three times: day 1 at Sam and 5 pm, day 2 at 8 am. One hour after the first dose, unilateral arterial ligation is performed under anesthesia using isoflurane. The femoral artery is ligated proximal to the origin of the popliteal artery. The contralateral limb underwent a sham surgical procedure. Ligation is performed in an alternating fashion between right and left hindlimbs. Two hours after Sam dosing on day 2, we obtained blood by ventricular stick while the mice are anesthetized with isoflurane. Serum samples for EPO analysis are obtained using gel clot serum separation tubes. Heart, liver, and gastrocnemius muscles are harvested, snap-frozen in liquid nitrogen, and stored in −80° C. until use.
The mouse serum EPO is detected using Mouse Quantikine Erythropoietin ELISA kit from R&D Systems according to manufacturer's instructions.

In another test the test system is HIF-1α. Nature of the test: Mouse Tissue HIF Western Blot Analysis. The note with it: FIG. 1. It is filed as in vivo. On the procedure: as §1, §2
Mouse Tissue HIF Western Blot Analysis
Tissues from mice stored at −80° C. are powdered with mortar and pestle chilled with liquid nitrogen. […]
In general terms: In western blotting, separated proteins are transferred to a membrane and probed.

`Cc1ccc(-c2ccc(C(=O)NCC(=O)O)c(O)c2)cc1` [[(3-Hydroxy-4′-methyl-biphenyl-4-carbonyl)-amino]-acetic acid]: in the test on EPO, the EPO response entry is “yes”.
Take `N#Cc1ccc(-c2cnc(C(=O)NCC(=O)O)c(O)c2)cc1` [{[5-(4-Cyanophenyl)-3-hydroxypyridine-2-carbonyl]amino}-acetic acid]: the EPO response result with EPO is “yes”.
For `O=C(O)CNC(=O)c1ncc(-c2cccc(Cl)c2)cc1O` [{[5-(3-Chlorophenyl)-3-hydroxypyridine-2-carbonyl]amino}-acetic acid], the “stabilization of HIF-1α in mouse liver (immunoblot of nuclear extracts)” value with HIF-1α is given as “stabilization of HIF-1α”. In addition, the EPO response result in the test with EPO was “yes”. The “erythropoietin level versus vehicle in mouse serum” value in the test on EPO (mouse serum after oral dosing, FIG. 2) is recorded as “elevated”.
Consider `COC(=O)CNC(=O)c1ncc(-c2ccccc2Cl)cc1O` [{[5-(2-Chlorophenyl)-3-hydroxy-pyridine-2-carbonyl]-amino}-acetic acid methyl ester], for which, in the test with EPO, the EPO response entry is listed as “yes”.
For “{[5-(4-Chlorophenyl)-3-hydroxypyridine-2-carbonyl]amino}-acetic acid”, the EPO response entry in the test on EPO is on record as “yes”.
For the compound `Cc1ccc(-c2cnc(C(=O)NCC(=O)O)c(O)c2)cc1` [[(3-Hydroxy-5-(4-methylphenyl)pyridine-2-carbonyl)amino]-acetic acid], the EPO response entry in the test with EPO is “yes”.
For `COC(=O)CNC(=O)c1ncc(-c2cccc(Cl)c2)cc1O` [{[5-(3-Chloro-phenyl)-3-hydroxy-pyridine-2-carbonyl]-amino}acetic acid methyl ester], in the test on EPO, the EPO response result was “yes”.
With `O=C(O)CNC(=O)c1ncc(-c2ccccc2Cl)cc1O` [{[5-(2-Chlorophenyl)-3-hydroxypyridine-2-carbonyl]amino}-acetic acid], the EPO response result with EPO was “yes”.
